# Laboratory results from the NIST ThermoML archive (doi:10.1016/j.fluid.2017.11.013).
# “And” between values parts separate entries of the source, which are not always exact repeats. Equal values may be shown once. Numbers after ± are expanded uncertainties.
# Details: Coaxial cylinder method
smiles,measurement,setting,value
C=C [ethene],thermal conductivity,"283.96 K, 5740 kPa, Fluid (supercritical or subcritical phases)",0.06796 ± 0.0026 W/m/K
same,thermal conductivity,"283.96 K, 5920 kPa, Fluid (supercritical or subcritical phases)",0.06854 ± 0.0027 W/m/K
same,thermal conductivity,"283.96 K, 6140 kPa, Fluid (supercritical or subcritical phases)",0.06972 ± 0.0027 W/m/K
same,thermal conductivity,"283.96 K, 6310 kPa, Fluid (supercritical or subcritical phases)",0.0703 ± 0.0027 W/m/K
same,thermal conductivity,"283.96 K, 6530 kPa, Fluid (supercritical or subcritical phases)",0.0709 ± 0.0027 W/m/K
same,thermal conductivity,"283.96 K, 6710 kPa, Fluid (supercritical or subcritical phases)",0.07122 ± 0.0027 W/m/K
same,thermal conductivity,"283.96 K, 7100 kPa, Fluid (supercritical or subcritical phases)",0.07249 ± 0.0028 W/m/K
same,thermal conductivity,"284.89 K, 101 kPa, Gas",0.01877 ± 0.00069 W/m/K
same,thermal conductivity,"284.89 K, 680 kPa, Fluid (supercritical or subcritical phases)",0.02012 ± 0.0012 W/m/K
same,thermal conductivity,"284.89 K, 1170 kPa, Fluid (supercritical or subcritical phases)",0.02064 ± 0.0012 W/m/K
same,thermal conductivity,"284.89 K, 2430 kPa, Fluid (supercritical or subcritical phases)",0.02241 ± 0.0012 W/m/K
same,thermal conductivity,"284.89 K, 3520 kPa, Fluid (supercritical or subcritical phases)",0.02591 ± 0.0013 W/m/K
same,thermal conductivity,"284.89 K, 4330 kPa, Fluid (supercritical or subcritical phases)",0.03024 ± 0.0014 W/m/K
same,thermal conductivity,"284.89 K, 4740 kPa, Fluid (supercritical or subcritical phases)",0.03518 ± 0.0016 W/m/K
same,thermal conductivity,"284.89 K, 4900 kPa, Fluid (supercritical or subcritical phases)",0.03781 ± 0.0017 W/m/K
same,thermal conductivity,"284.89 K, 5030 kPa, Fluid (supercritical or subcritical phases)",0.04219 ± 0.0019 W/m/K
same,thermal conductivity,"284.89 K, 5100 kPa, Fluid (supercritical or subcritical phases)",0.04581 ± 0.0061 W/m/K
same,thermal conductivity,"284.89 K, 5160 kPa, Fluid (supercritical or subcritical phases)",0.05257 ± 0.0022 W/m/K
same,thermal conductivity,"284.89 K, 5200 kPa, Fluid (supercritical or subcritical phases)",0.05764 ± 0.0024 W/m/K
same,thermal conductivity,"284.89 K, 5240 kPa, Fluid (supercritical or subcritical phases)",0.0653 ± 0.0026 W/m/K
same,thermal conductivity,"284.89 K, 5260 kPa, Fluid (supercritical or subcritical phases)",0.06948 ± 0.0063 W/m/K
same,thermal conductivity,"284.89 K, 5290 kPa, Fluid (supercritical or subcritical phases)",0.08267 ± 0.01 W/m/K
same,thermal conductivity,"284.89 K, 5310 kPa, Fluid (supercritical or subcritical phases)",0.09324 ± 0.0085 W/m/K
same,thermal conductivity,"284.89 K, 5320 kPa, Fluid (supercritical or subcritical phases)",0.09654 ± 0.0036 W/m/K
same,thermal conductivity,"284.89 K, 5340 kPa, Fluid (supercritical or subcritical phases)",0.09916 ± 0.017 W/m/K
same,thermal conductivity,"284.89 K, 5360 kPa, Fluid (supercritical or subcritical phases)",0.08875 ± 0.02 W/m/K
same,thermal conductivity,"284.89 K, 5380 kPa, Fluid (supercritical or subcritical phases)",0.08399 ± 0.017 W/m/K
same,thermal conductivity,"284.89 K, 5400 kPa, Fluid (supercritical or subcritical phases)",0.07691 ± 0.0099 W/m/K
same,thermal conductivity,"284.89 K, 5430 kPa, Fluid (supercritical or subcritical phases)",0.07429 ± 0.012 W/m/K
same,thermal conductivity,"284.89 K, 5460 kPa, Fluid (supercritical or subcritical phases)",0.07184 ± 0.0057 W/m/K
same,thermal conductivity,"284.89 K, 5490 kPa, Fluid (supercritical or subcritical phases)",0.06955 ± 0.0063 W/m/K
same,thermal conductivity,"284.89 K, 5530 kPa, Fluid (supercritical or subcritical phases)",0.06954 ± 0.0027 W/m/K
same,thermal conductivity,"284.89 K, 5600 kPa, Fluid (supercritical or subcritical phases)",0.06952 ± 0.0027 W/m/K
same,thermal conductivity,"284.89 K, 5610 kPa, Fluid (supercritical or subcritical phases)",0.06954 ± 0.0034 W/m/K
same,thermal conductivity,"284.89 K, 5670 kPa, Fluid (supercritical or subcritical phases)",0.06864 ± 0.0047 W/m/K
same,thermal conductivity,"284.89 K, 5780 kPa, Fluid (supercritical or subcritical phases)",0.06822 ± 0.0027 W/m/K
same,thermal conductivity,"284.89 K, 5890 kPa, Fluid (supercritical or subcritical phases)",0.06866 ± 0.0027 W/m/K
same,thermal conductivity,"284.89 K, 6170 kPa, Fluid (supercritical or subcritical phases)",0.06954 ± 0.0027 W/m/K
same,thermal conductivity,"284.89 K, 6530 kPa, Fluid (supercritical or subcritical phases)",0.07045 ± 0.0027 W/m/K
same,thermal conductivity,"284.89 K, 7030 kPa, Fluid (supercritical or subcritical phases)",0.07139 ± 0.0027 W/m/K
same,thermal conductivity,"284.89 K, 7500 kPa, Fluid (supercritical or subcritical phases)",0.07332 ± 0.0028 W/m/K
same,thermal conductivity,"284.89 K, 8190 kPa, Fluid (supercritical or subcritical phases)",0.07593 ± 0.0029 W/m/K
same,thermal conductivity,"284.89 K, 8580 kPa, Fluid (supercritical or subcritical phases)",0.07756 ± 0.0029 W/m/K
same,thermal conductivity,"284.89 K, 8590 kPa, Fluid (supercritical or subcritical phases)",0.07756 ± 0.0029 W/m/K
same,thermal conductivity,"284.89 K, 9070 kPa, Fluid (supercritical or subcritical phases)",0.07866 ± 0.003 W/m/K
same,thermal conductivity,"284.89 K, 9530 kPa, Fluid (supercritical or subcritical phases)",0.07924 ± 0.003 W/m/K
same,thermal conductivity,"284.89 K, 9990 kPa, Fluid (supercritical or subcritical phases)",0.08043 ± 0.0031 W/m/K
same,thermal conductivity,"284.89 K, 10010 kPa, Fluid (supercritical or subcritical phases)",0.08041 ± 0.0031 W/m/K
same,thermal conductivity,"285.04 K, 5080 kPa, Fluid (supercritical or subcritical phases)",0.04457 ± 0.0019 W/m/K
same,thermal conductivity,"285.04 K, 5100 kPa, Fluid (supercritical or subcritical phases)",0.04514 ± 0.0019 W/m/K
same,thermal conductivity,"285.04 K, 5210 kPa, Fluid (supercritical or subcritical phases)",0.05584 ± 0.0025 W/m/K
same,thermal conductivity,"285.04 K, 5270 kPa, Fluid (supercritical or subcritical phases)",0.06826 ± 0.0027 W/m/K
same,thermal conductivity,"285.04 K, 5300 kPa, Fluid (supercritical or subcritical phases)",0.07918 ± 0.0031 W/m/K
same,thermal conductivity,"285.04 K, 5340 kPa, Fluid (supercritical or subcritical phases)",0.09492 ± 0.0036 W/m/K
same,thermal conductivity,"285.04 K, 5350 kPa, Fluid (supercritical or subcritical phases)",0.09641 ± 0.0036 W/m/K
same,thermal conductivity,"285.04 K, 5370 kPa, Fluid (supercritical or subcritical phases)",0.09081 ± 0.0034 W/m/K
same,thermal conductivity,"285.04 K, 5420 kPa, Fluid (supercritical or subcritical phases)",0.07925 ± 0.0031 W/m/K
same,thermal conductivity,"285.04 K, 5490 kPa, Fluid (supercritical or subcritical phases)",0.07233 ± 0.0028 W/m/K
same,thermal conductivity,"285.04 K, 5640 kPa, Fluid (supercritical or subcritical phases)",0.06952 ± 0.0027 W/m/K
same,thermal conductivity,"285.04 K, 6040 kPa, Fluid (supercritical or subcritical phases)",0.06871 ± 0.0027 W/m/K and 0.0687 ± 0.0027 W/m/K
same,thermal conductivity,"285.04 K, 6050 kPa, Fluid (supercritical or subcritical phases)",0.06846 ± 0.0027 W/m/K
same,thermal conductivity,"285.04 K, 6140 kPa, Fluid (supercritical or subcritical phases)",0.06843 ± 0.0027 W/m/K
same,thermal conductivity,"285.04 K, 6150 kPa, Fluid (supercritical or subcritical phases)",0.06861 ± 0.0027 W/m/K
